Columns and labels:
MV4-11 blasts = assay: GILT combined with MIF inhibitor or CXCR2 inhibitor on MV4-11 blasts in vitro (FACS); format: cell-based, human; settings: 80 nM GILT, 50 uM SB225002, 3 days
Experimental: Whether targeting the MIF-CXCR2 signaling pathway would effectively treat AML blasts were investigated. First, the combination of GILT with ribosomal protein S19 (RPS19) on MV4-11 blasts was tested in vitro. RPS19, a MIF inhibitor, has been reported to suppress cisplatin-activated MIF-CD74-NFκB signaling pathway in acute kidney injury. […] The combination of 80 nM GILT with 50 uM SB225002, a CXCR2-inhibitor (CXCR2-I) on MV4-11 blasts in vitro were examined. […] The anti-leukemic effect of combining GILT with CXCR2-I on primary BMMNC ex vivo were examined. […] There may be alternative cytokine pathways compensating for the defect of MIF-CXCR2 pathways.
For MIF in vitro experiments, different doses of MIF were added to 1 ml of 1×10^6 MV4-11 cells or RAW264.7 cells for each experimental group in 24-well plates. Two days after the one dose treatment, cells were then collected for either analyses by FACS and qPCR. As combination agents to treat blasts in vitro or ex vivo, one dose of 80 nM GILT with one dose of different inhibitors were added to 1 ml of 1×10^6 MV4-11 cells or 1 ml of 0.5-1×10^6 primary AML BMMNC for each experimental group in 24-well plates. Dose-dependent experiments of CXCR2 inhibitor and NFκB inhibitor with or without 80 nM GILT were performed. […] Three days after the one dose treatment, cells were then collected for either analyses by FACS and qPCR.
(§1) Flow Cytometry (FACS). Cells were harvested and examined for the expression of cell surface biomarkers (CD) and intracellular proteins by multichromatic FACS as previously described. About 1×10^4˜10^6 cells in 100 μl FACS buffer (PBS containing 1% FBS and 0.05% sodium azide) were stained with various fluorescence-conjugated antibodies specific for the desired cell surface proteins at 4° C. for 30 min. The surface-stained cells were then fixed and permeabilized using the appropriate reagents (e.g. the BD Pharmingen Cytofix/Cytoperm buffer) and stained with different fluorescence-conjugated antibodies specific for the desired intracellular proteins at 4° C. for 2 hours in the permeabilizing buffer (e.g. the BD Perm/Wash buffer). Concentrations of the Abs were used per the manufacturers' recommendations. Finally, the cells were washed twice in the permeabilizing buffer and twice in the FACS buffer before being analyzed on the BD FACSAria II. Data was analyzed using the FlowJo software (Tree Star Inc., Ashland, OR).

MV4-11 cells = assay: FACS of TKI-treated MV4-11 cells in vitro (viable blasts, Ki67, pBAD); format: cell-based, human; settings: 3 days after one dose of 80 nM TKI; vs non-treatment controls
Experimental: The AML cells were analyzed at different time points after exposure to TKI (3 days, 10 days, 20 days, and 28 days). […] After 3 days, FACS of the surface markers and intracellular proteins, including CD14, CD33, CD44, and Ki67, were performed. FIGS. 1A-1E depicts therapeutic effect of different TKIs on MV4-11 and MOLM-14 cells in vitro (N=6). […] The circles indicate the group of viable blasts located in a FACS plot and green arrows indicate the dying tendency of blasts which will become positive for viability dye during the next few days. FIGS. 1C and 1D are graphical representations of the cumulative FACS percentage data of viable MV4-11 and MOLM-14 cells. *P<0.05. […]
as §1, with “Cells were harvested and examined for the expression of cell surface biomarkers (CD) and intracellular proteins by multichromatic FACS as previously described.” left out, “Concentrations of the Abs were used per the manufacturers' recommendations.” left out, “Data was analyzed using the FlowJo software (Tree Star Inc., Ashland, OR).” left out

| Compound | percentage of viable CD44+ MV4-11 blasts (MV4-11 blasts) [%] | percentage of Ki67+CD44+ blasts (MV4-11 blasts; MV4-11) [%] | viable MV4-11 blasts (FACS) (MV4-11 cells) |
| --- | --- | --- | --- |
| CCc1nc(C(N)=O)c(Nc2ccc(N3CCC(N4CCN(C)CC4)CC3)c(OC)c2)nc1NC1CCOCC1 [GILT, Gilteritinib] | 12.2 | 12.2 |  |
| CC(C)(C)c1cc(NC(=O)Nc2ccc(-c3cn4c(n3)sc3cc(OCCN5CCOCC5)ccc34)cc2)no1 [QUIZ, Quizartinib] |  |  | more effective |
